Columns and labels:
[1] = test system: human PDAC tissue fragments; experiment: Ex vivo PDAC tissue fragment assay; assay type: cell-based
From the text: The utilization of human pancreatic cancer tissue was approved by the Indiana University Institutional Review Board (1911155674), and the tissue samples were sourced from the Indiana University Simon Comprehensive Cancer Center Tissue Procurement Core. A freshly procured pancreatic cancer tissue, weighing approximately 1 g, was manually sectioned into small fragments (ranging from 0.5 to 0.8 mm in length) using a scalpel. These fragments were subsequently cultured in DMEM supplemented with 10% FBS and antibiotics for one day. Following this initial incubation, the described conditioned medium (CM) was introduced and maintained for an additional four days, during which any alterations in fragment size were assessed.

PANC1 cells [2] = experiment: MTT-based viability assay; assay type: cell-based, human; settings: for IC50: Homo sapiens
Method: (§1) MTT-based assessment of metabolic activity involved seeding approximately 2000 cells into 96-well plates. These cells were subsequently incubated with treatment agents for two days. On day 4, the cells were subjected to staining with 0.5 mg/mL thiazolyl blue tetrazolium bromide (M5655, Sigma). The determination of metabolic activity was based on the measurement of optical density at 562 nm. For the evaluation of proliferation activity using the EdU assay, around 1000 cells were seeded into 96-well plates. A fluorescence-based cell proliferation kit (Click-iT™ EdU Alexa Fluor™ 488 Imaging Kit; Thermo Fisher, Waltham, MA, USA) was employed, following the manufacturer’s protocol. This kit facilitated the detection of EdU incorporation as an indicator of proliferating cells.

cleaved caspase 3 = experiment: Western blot analysis; assay type: cell-based, human; settings: 25 μg/mL P04
Method: (§2) Cell lysis was achieved using RIPA lysis buffer (sc-24948, Santa Cruz Biotech, Dallas, TX, USA), supplemented with protease inhibitors (PIA32963, Thermo Fisher), and phosphatase inhibitors (2006643, Calbiochem, Billerica, MA, USA). Subsequently, proteins were separated using 10–15% SDS gels (Bio-Rad Laboratories, Hercules, CA, USA) and then transferred onto polyvinylidene difluoride membranes (IPVH00010, Millipore, Billerica, MA, USA). The membrane was first incubated with primary antibodies, followed by secondary antibodies (7074S/7076S, Cell Signaling, Danvers, MA, USA). Antibodies against ALDOA, Snail, p-Src, Src, cleaved caspase 3, caspase 3 (Cell Signaling), and K-Ras (Santa Cruz Biotech) were employed, with β-actin (Sigma) serving as a control. Protein levels were determined utilizing the Super-Signal West Femto Maximum Sensitivity Substrate (PI34096, Thermo Fisher), and signal intensities were quantified using a luminescent image analyzer (LAS-3000, Fuji Film, Tokyo, Japan).

Snail = experiment: Western blot analysis; assay type: cell-based, human; settings: 25 μg/mL P04
Method: as §2

ALDOA = experiment: Western blot analysis; assay type: cell-based, human
Method: as §2

K-Ras = experiment: Western blot analysis; assay type: cell-based, human
Method: as §2

p-Src = experiment: Western blot analysis; assay type: cell-based, human; settings: 25 μg/mL P04
Method: as §2

PANC1 cells [3] = experiment: EdU proliferation assay; assay type: cell-based, human; settings: 25 μg of P04
Method: as §1

PA03C cells = experiment: MTT-based viability assay; assay type: cell-based, human; settings: 25 μg/mL peptide, incubated two days, vs control
Method: as §1

PAN198 cells = experiment: MTT-based viability assay; assay type: cell-based, human; settings: 25 μg/mL peptide, incubated two days, vs control
Method: as §1

MSCs = experiment: MTT-based viability of MSCs; assay type: cell-based, mice; settings: P04; assay not specified, no data shown
Method: Human pancreatic ductal adenocarcinoma (PDAC) cell lines including PANC1 (ATCC, Manassas, VA, USA), PANC198, and Pa03C (sourced from Indiana University Simon Comprehensive Cancer Center, Indianapolis, IN, USA) were cultured in DMEM (10-013-CV, Corning Inc., Corning, NY, USA). The breast cancer cell lines MDA-MB-231 and MDA-MB-436 (ATCC) were grown in RPMI-1640 medium (Gibco, Carlsbad, CA, USA). The culture media for all cell lines were supplemented with 10% fetal bovine serum and antibiotics (100 units/mL penicillin and 100 µg/mL streptomycin; Life Technologies, Grand Island, NY, USA). Jurkat T lymphocytes (ATCC) were cultured in RPMI-1640 medium (10-040-CV, Corning). Murine MSCs derived from the bone marrow of C57BL/6 mice were cultured in DMEM. All cell cultures were maintained at 37 °C with 5% CO2. The overexpression of ALDOA was accomplished by transfecting its plasmids (109,854; Addgene, Cambridge, MA, USA), while blank plasmids (FLAG-HA-pcDNA3.1; Addgene) were employed as controls.
MTT-based assessment of metabolic activity involved seeding approximately 2000 cells into 96-well plates. These cells were subsequently incubated with treatment agents for two days. […] A fluorescence-based cell proliferation kit (Click-iT™ EdU Alexa Fluor™ 488 Imaging Kit; Thermo Fisher, Waltham, MA, USA) was employed, following the manufacturer’s protocol. […]

PANC1 cells [4] = experiment: Wound-healing scratch assay (motility); assay type: cell-based, human; settings: 25 μg/mL peptide, 0 h vs 24 h
Method: To analyze the two-dimensional migratory behavior of PANC cells, a wound-healing scratch assay was employed to assess the change in the scratched area. Around 3 × 10^5 cells were seeded into 12-well plates on day 1. On day 2, a scratch was carefully created on the cell layer using the tip of a plastic pipette. The cells were then rinsed with DMEM to eliminate any detached cells. Images of the cell-free areas were captured at both 0 h and 24 h using a light microscope (40× magnification). The sizes of the cell-free zones were subsequently quantified using Image J (v1.5.4f).

PANC1 cells [5] = experiment: Transwell invasion assay; assay type: cell-based, human; settings: 25 μg of P04
Method: To assess the invasive potential of tumor cells, a 12-well plate and transwell chambers (353,182, Thermo Fisher) featuring 8-µm pore size were employed. The transwell chambers were pre-coated with 300 µL of Matrigel (100 µg/mL), followed by the addition of 500 µL of serum-free medium. Afterward, the chambers were rinsed three times with a serum-free medium. Subsequently, approximately 7 × 10^4 cells in 300 µL of serum-free DMEM were introduced into the upper chamber, while 800 µL of the conditioned medium (CM) was added to the lower chamber. Upon completion of the experiment, cells that had invaded the lower side of the membrane were fixed and stained using methanol and crystal violet. Utilizing an inverted optical microscope (100×), five randomly selected images were captured. From these images, the average count of stained cells, serving as an indicator of the invasion capacity, was determined.

[6] = PANC-1, chemotherapeutic agent alone
[7] = PANC-1, chemotherapeutic agent together with 25 μg/mL P04
[8] = following administration of rhALDOA

In the case of O=c1[nH]cc(F)c(=O)[nH]1 [5-Flu, 5-fluorouracil], the PDAC fragment size ([1]; 10 μM 5-Flu alone, 96 h, n = 8) is reported as “reduction”, the IC50 (PANC1 cells [2]; [6]) is reported as 3300 nM and the IC50 (PANC1 cells [2]; [7]) is reported as 1600 nM.

Nc1ccn([C@@H]2O[C@H](CO)[C@@H](O)C2(F)F)c(=O)n1 [gemcitabine] gave an IC50 (PANC1 cells [2]; [6]) of 1000 nM and an IC50 (PANC1 cells [2]; [7]) of 800 nM.

With “IGEHTPSALAIMENANVLAR [P04, anticancer peptide derived from aldolase A (ALDOA)]” the “cleaved caspase 3 level” value (cleaved caspase 3; PAN198 cells) was “increase”, the “cleaved caspase 3 level” value (cleaved caspase 3; PANC1 cells) was “elevation” and the Snail level (Snail; PAN198 cells) was “downregulation”. For the same molecule, the Snail level (Snail; PANC1 cells) was “downregulation”, the ALDOA level (ALDOA; PANC1 cells, 25 μg/mL P04) was “decrease” and the K-Ras level (K-Ras; PANC1 cells, 25 μg/mL P04) was “discernible reduction”. For the same molecule, the p-Src level (p-Src; PAN198 cells) was “downregulation”, the p-Src level (p-Src; PANC1 cells) was “downregulation” and the PDAC fragment size ([1]; 25 μg/mL P04, 96 h, n = 8, patient tissue ex vivo) was “notable reduction”. For the same molecule, the “EdU-based proliferation of PANC1 cells” value (PANC1 cells [3]) was “discernible decrease”, the “MTT-based viability of PANC1 cells” value (PANC1 cells [2]; 25 μg/mL peptide, incubated two days, vs control) was “reduction” and the “MTT-based viability of PA03C cells” value (PA03C cells) was “reduction”. For the same molecule, the “MTT-based viability of PAN198 cells” value (PAN198 cells) was “reduction”, the “inhibitory effect on mesenchymal stem cells (MSC growth)” value (MSCs) was “no inhibitory effect” and the “scratch-based motility of PANC1 cells” value (PANC1 cells [4]) was “reduction”. For the same molecule, the “transwell-based invasion of PANC1 cells” value (PANC1 cells [5]) was “discernible decrease”.

B1: rhALDOA: human recombinant ALDOA protein (MBS8248528, MyBioSource) (protein, UniProt P04075 2-364, looked up)
Fructose-bisphosphate …: PYQYPALTPEQKKELSDIAHRIVAPGKGILAADESTGSIAKRLQSIGTENTEENRRFYRQLLLTADDRVNPCIGGVILFHETLYQKADDGRPFPQVIKSKGGVVGIKVDKGVVPLAGTNGETTTQGLDGLSERCAQYKKDGADFAKWRCVLKIGEHTPSALAIMENANVLARYASICQQNGIVPIVEPEILPDGDHDLKRCQYVTEKVLAAVYKALSDHHIYLEGTLLKPNMVTPGHACTQKFSHEEIAMATVTALRRTVPPAVTGITFLSGGQSEEEASINLNAINKCPLLKPWALTFSYGRALQASALKAWGGKKENLKAAQEEYVKRALANSLACQGKYTPSGQAGAAASESLFVSNHAY
For B1, the ALDOA level (ALDOA; [8]) was “discernible decreases”, the K-Ras level (K-Ras; [8]) was “discernible decreases” and the “MTT-based viability of PANC1 cells” value (PANC1 cells [2]; 5 μg/mL recombinant ALDOA protein) was “notable reduction”.

Reference: publication PMC10610494, “Anticancer Peptides Derived from Aldolase A and Induced Tumor-Suppressing Cells Inhibit Pancreatic Ductal Adenocarcinoma Cells” (Pharmaceutics, 2023)
